Measured values taken from US20260137082A1 (priority 2021, published 2026).
Converted amounts (≈) assume the structure as drawn. Read-outs that look alike come from different tables or passages of the source.

How the values were obtained:
[1] = system: Fusarium graminearum (Gibberella zeae) strain K-6102; type: cell-based; conditions: solo fungicide, 4 days, 24° C., OD 620 nm
Fusarium asiaticum = assay: microbe, parasite or virus in culture; conditions: 72 h, read-out: EC50 Value
Procedure: The fungicidal activity of cyclobutrifluram, fludioxonil (FDL), and mixtures thereof with various weight ratios (e.g., 10:1 and 1:50) of cyclobutrifluram and FDL was tested against Fusarium asiaticum and Fusarium pseudograminearum.
Specifically, according to the results of pre-experiment, the best concentration ranges for determination of the sensitivity of pathogens to cyclobutrifluram, FDL and mixtures thereof were respectively determined, and 5-7 concentration gradients were set to make the inhibition rate at the minimum concentration close to 10% and the inhibition rate at the highest concentration close to 90%. […]
Mycelial plugs in the edge of colony were prepared by hole puncher with a diameter of 5 mm. […] After cultured in an incubator at 25° C. for three days in darkness, the diameters of every mycelial colony on PDA plates were measured twice perpendicularly and then averaged. […]
The EC50 values of each tested agent and each mixture were calculated by the linear regression analysis between the probability value of the inhibition rate and the log value of the series of concentrations. The co-toxicity coefficient (CTC) of the mixtures was calculated and evaluated according to the Sun-YP method.

Gibberella fujikuroi = assay: microbe, parasite or virus in culture; type: cell-based; conditions: Fusarium fujikuroi, 72 h, read-out: EC50 Value

Row | Structure (SMILES) | Efficacy (%, n = 5) ([1]; 0.1 ppm) [%] | Efficacy (%, n = 5) ([1]; 1 ppm) [%] | Efficacy (%, n = 5) ([1]; 10 ppm) [%] | EC50 (Fusarium asiaticum) [µg/mL] | EC50 (Gibberella fujikuroi) [µg/mL]
1 | N#CC1=CN=CC1c1cccc2c1OC(F)(F)O2 (stereo not shown) [FDL, 4-(2,2-difluoro-benzo[1,3]dioxol-4-yl)pyrrole-3-carbonitrile] | 20.4 | 43.4 | 65.4 | 0.0196 (≈ 0.079 µM) | 0.173 (≈ 0.697 µM)
2 | O=C(NC1CCC1c1ccc(Cl)cc1Cl)c1cccnc1C(F)(F)F (stereo in doubt) [cyclobutrifluram, N-[(1,2 cis)-2-(2,4-dichlorophenyl)cyclobutyl]-2-(trifluoromethyl)pyridine-3-carboxamide] | 30.8 | 31.3 | 34.1 | 0.0214 (≈ 0.055 µM) | 0.75 (≈ 1.93 µM)
